Test [1] concerns Rattus norvegicus. In words: Inhibition of estrogen-induced effect on uterine weight in orally dosed Sprague-Dawley rat. It counts as functional.
For test [2], the target named is T1, Estrogen receptor (Homo sapiens, UniProt P03372).
T1 sequence (P03372 whole entry): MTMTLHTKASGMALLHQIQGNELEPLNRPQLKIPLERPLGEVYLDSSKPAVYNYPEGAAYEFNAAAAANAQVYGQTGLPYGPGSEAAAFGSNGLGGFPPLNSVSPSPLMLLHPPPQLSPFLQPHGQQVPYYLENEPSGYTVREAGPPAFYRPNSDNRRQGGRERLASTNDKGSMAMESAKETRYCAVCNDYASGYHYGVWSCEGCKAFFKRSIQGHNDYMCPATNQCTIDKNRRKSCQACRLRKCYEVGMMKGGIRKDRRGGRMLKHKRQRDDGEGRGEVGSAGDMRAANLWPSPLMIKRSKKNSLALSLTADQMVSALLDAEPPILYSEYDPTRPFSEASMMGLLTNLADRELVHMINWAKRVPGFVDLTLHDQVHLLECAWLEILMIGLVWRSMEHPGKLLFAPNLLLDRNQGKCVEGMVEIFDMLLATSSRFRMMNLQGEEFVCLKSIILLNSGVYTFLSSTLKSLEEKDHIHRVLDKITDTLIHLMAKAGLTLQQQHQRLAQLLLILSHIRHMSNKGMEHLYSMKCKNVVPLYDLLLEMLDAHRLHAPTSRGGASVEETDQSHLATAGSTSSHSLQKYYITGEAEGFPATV
In words: Displacement of [3H]17beta-estradiol from ERalpha. (In a radioligand displacement assay an active substance lowers the binding of a labelled ligand.)

Test [3] addresses T2, Estrogen receptor (Homo sapiens, UniProt Q92731+P03372). In words: Antagonist effect on breast adenocarcinoma-derived MCF7 cell line. It counts as functional, cell-based.
A further test deals with Estrogen receptor beta (Homo sapiens, UniProt Q92731). Nature of the test: Displacement of [3H]17beta-estradiol from ERbeta.
Chain of Estrogen receptor beta (Q92731 whole entry): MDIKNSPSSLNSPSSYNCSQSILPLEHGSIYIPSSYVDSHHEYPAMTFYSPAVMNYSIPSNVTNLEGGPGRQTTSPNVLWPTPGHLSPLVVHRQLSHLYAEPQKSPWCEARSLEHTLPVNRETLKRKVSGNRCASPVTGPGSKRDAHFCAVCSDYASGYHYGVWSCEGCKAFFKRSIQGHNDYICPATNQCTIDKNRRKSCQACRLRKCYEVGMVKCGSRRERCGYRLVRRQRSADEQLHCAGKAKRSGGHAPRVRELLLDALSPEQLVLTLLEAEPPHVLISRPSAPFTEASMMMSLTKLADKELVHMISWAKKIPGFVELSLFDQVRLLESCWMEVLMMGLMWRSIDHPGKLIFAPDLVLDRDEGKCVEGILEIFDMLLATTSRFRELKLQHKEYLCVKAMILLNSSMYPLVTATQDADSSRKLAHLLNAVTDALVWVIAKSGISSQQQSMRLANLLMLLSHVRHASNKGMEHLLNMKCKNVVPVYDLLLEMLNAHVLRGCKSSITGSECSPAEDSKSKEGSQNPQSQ
Test [4] has as its target T2, Estrogen receptor. Nature of the test: Antagonist effect on Ishikawa uterine cancer cell line in presence of 17-beta-estradiol. It counts as functional, cell-based.
In test [5] the test system is Rattus norvegicus. Nature of the test: Efficacy against hot flush in morphine dependent ovariectomized orally dosed Sprague-Dawley rat model. It counts as functional, organism-based.
Test [6] has as its system Rattus norvegicus. In words: Ability to reduce serum cholesterol level in ovariectomized orally dosed Sprague-Dawley rat at 0.01 mg/kg. Set-up: scale not given: the % may be the effect or the level left. Conditions: route oral. It is filed as functional.
Test [7] deals with Rattus norvegicus. In words: Eosinophil peroxidase activity in ovariectomized orally dosed Sprague-Dawley rat. It counts as functional, organism-based. Conditions: filed as agonist.
Test [8] deals with Rattus norvegicus. In words: Ability to block ovariectomy-induced bone loss in orally dosed Sprague-Dawley rat. It counts as functional, organism-based.

These results are taken from ChEMBL document CHEMBL1149385, “A selective estrogen receptor modulator for the treatment of hot flushes” (J Med Chem, 2006).

The source made the active and inactive calls. No cut-off for these calls is given here.

Regarding `Cl.Oc1ccc2c3c(ccc2c1)-c1cc(F)cc(F)c1O[C@H]3c1ccc(OCCN2CCCCC2)cc1`, the ED50 (as a rule, the dose that gives a 50% effect, or the effect in half of the subjects) with Rattus norvegicus [1] is “inactive”. Besides, the Ki (as a rule, a dissociation constant, usually derived from enzyme kinetics or from competition with a known ligand) on Estrogen receptor [2] turned out to be 5.8 nM; on Estrogen receptor beta it was 54 nM. In addition, the half-maximal inhibitory concentration (IC50) (as a rule, the concentration needed to halve the response being measured) worked out at 330 nM against Estrogen receptor [3] and 430 nM at Estrogen receptor [4].
In the test on Rattus norvegicus [1] (po), `Cl.Oc1ccc2c3c(ccc2c1)-c1cc(F)cc(F)c1O[C@@H]3c1ccc(OCCN2CCCCC2)cc1` had an ED50 of 0.03 mg/kg. For the same compound, the Ki at Estrogen receptor [2] was found to be 0.3 nM; on Estrogen receptor beta, 0.5 nM. Also, the Efficacy entry in the test on Rattus norvegicus [5] is “Dose-dependent effect”. The results for the IC50 on Estrogen receptor [3] and on Estrogen receptor [4] were 1.4 nM and 5.3 nM, respectively. For the same compound, the Activity is 50% in the test on Rattus norvegicus [6] and “Antagonist” with Rattus norvegicus [7]. In addition, the outcome with Rattus norvegicus [8] was Active.
With `O=C(c1ccc(OCCN2CCCC2)cc1)c1c(-c2ccc(O)cc2)sc2cc(O)ccc12`, the Activity entry in the test on Rattus norvegicus [7] was “Antagonist”. Further, the result with Rattus norvegicus [8] was Active.
